Assay results from patent US20110319484A1, “NEUROPROTECTIVE COMPOUNDS” (Parque Tecnologico de Ciencias de la Salud, priority 2009, published 2011).

What was measured:
[1] = system: caspase 3/7 activation in SK-N-MC cells; test: Inhibition of camptothecin-induced caspase 3/7 activation (Apo-ONE kit); assay type: cell-based, human; conditions: Homo sapiens, 24 h pretreatment at 100 μg/ml, then camptothecin 50 μM 6 h
Description: To that end, the inhibition caused by (1S,3R,7S,8S,8aR)-1,2,3,7,8,8a-hexahydro-3,7-dimethyl-8-[2-[(2R,4R)-tetrahydro-4-hydroxy-6-oxo-2H-pyran-2-yl]ethyl-1-naphthalenyl 2,2-dimethylpropanoate (NST0005) of apoptosis caused by the treatment with camptothecin (Campt) on the SK-N-MC cells in culture was analyzed following the working conditions specified in section 3.1. Apoptosis can be quantified by measuring effector caspase activation. Caspases (proteins belonging to the cysteine-protease group) mediate the cleavage of a series of proteins triggering the signaling cascade which leads cells to apoptosis. […] The active cellular caspases 3 or 7 cause the cleavage of the substrate, emitting fluorescence which is read by means of a fluorometer.
The effect of the pretreatment of the NST0005 compound at 40 and 100 μg/ml on caspase 3/7 activation caused by 50 μM of camptothecin (Campt) in the SK-N-MC cells was thus analyzed. […]
The cells were incubated (at 37° C. and 5% CO2) with these treatments for 6 h, after which time the lysis buffer and the substrate rhodamine 110 were added at the concentrations specified by the manufacturer; they were incubated at room temperature for 30 minutes and the cells were then frozen at −20° C. overnight. They were thawed the next day and the reading of the plate was taken in a fluorometer at 499 nm for excitation and 521 nm for emission.

hippocampus of mice = test: Neuroprotection in the hippocampus of mice after kainate (histopathology); assay type: in vivo, mice (FVB/NHan); conditions: KA 25 mg/kg i.p., NST0005 50 mg/kg i.p. daily, 2 days before and 7 days after KA
Description: All the animals included during the experimental process were 12-week old males of the FVB/NHan strain. The experiments were carried out strictly following the Guidance on the Operation of Animals (Scientific Procedures, Act. 1986). The animals had their respective quarantine period and were treated with maximum precaution to minimize possible contaminations for inoculations and handling.
Sixteen animals were used in this assay and the treatments were all carried out by intraperitoneal (i.p.) route with a volume of 100 μl, according to the following regimens: • i) PBS+PBS+PBS regimen: 4 animals were initially treated with PBS with a daily dose for 2 days, on the second day the animals were inoculated with a new dose of PBS and for the next 7 days with a daily dose of PBS. • ii) PBS+KA+PBS regimen: 6 animals were initially treated with PBS with a daily dose for 2 days, on the second day the animals were inoculated with a dose of kainate at 25 mg/kg and for the next 7 days with a daily dose of PBS. • iii) NST0005+KA+NST0005 regimen: 6 animals were initially treated with NST0005 with a daily dose of 50 mg/kg for 2 days, on the second day the animals were inoculated with a dose of kainate at 25 mg/kg and for the next 7 days with a daily dose of NST0005 at 50 mg/kg.
Once the treatment time of 7 days ended, the animals were sacrificed and the brains were dissected. The brain samples were processed and included in paraffin. Fluoro-Jade B® (FJB) fluorescent stain was used in 5 μm thick sections to analyze the neurodegeneration of the hippocampus.
Based on the neuroprotection results shown in the previous section, the inventors decided to investigate if the neuroprotective effect of NST0005 in the hippocampus of mice against the administration of kainate (KA) was accompanied by the protection of another sign of neuronal damage such as neuritic dystrophy. To that end, the same experimental scheme was used as in section 6.1. Once the treatment period of 7 days ended, the animals were sacrificed and the brains were dissected. The brain samples were processed and included in paraffin. Bright field immunohistochemistry of the microtubule-associated protein 2 (MAP2) was used in 5 μm thick sections to analyze the neuritic dystrophy of the hippocampus.
Based on the neuroprotection results shown in the previous sections, the inventors decided to investigate if the neuroprotective effect of NST0005 in the hippocampus of mice against the administration of kainate (KA) was accompanied by the inhibition of neuronal death by apoptosis. To that end, the same experimental scheme was used as in section 6.1. Once the treatment period of 7 days ended, the animals were sacrificed and the brains were dissected. The brain samples were processed and included in paraffin. […]

For C[C@H]1C=C2C=C[C@H](C)[C@H](CC[C@@H]3C[C@@H](O)CC(=O)O3)[C@H]2[C@@H](OC(=O)C(C)(C)C)C1 [NST0005], the inhibition at 100 µg/mL [1] was 33%, the “neuritic dystrophy in the hippocampus (MAP2)” value (hippocampus of mice) was “significantly prevents the neuritic dystrophy” and the “neurodegeneration in the hippocampus (Fluoro-Jade B)” value (hippocampus of mice) was “completely protected against the neurodegeneration”. The “neuronal death by apoptosis in the hippocampus (Acridine Orange)” value (hippocampus of mice) was “prevents neuronal damage, neurodegeneration and also neuronal death by apoptosis” and the “neuronal death by necrosis in the hippocampus (hematoxylin and eosin)” value (hippocampus of mice) was “substantially prevents neuronal death by necrosis”.
